Results on three molecules are retold here after patent publication US8093299B2, “Methods of treating bowel disorders” (Amgen Inc., priority 2007, dated 2012).

The nature of data set [1]: Absorption from the gut into the bloodstream.
In data set [2] the test system is 5% DSS induced colitis in SJL/J mice. Kind of data set: DSS-induced colitis in mice, histopathologic inflammation score of large intestine. Format: in vivo, mouse. The text has this: Animals. Female SJL/J mice aged 8-10 weeks were used for this study, purchased from Jackson Laboratories (Bar Harbour, Me.). Female Spraque-Dawley rats (approximately 150-300 grams) were purchased from Charles River Laboratories Inc. (Wilmington, Mass.). Mdr1a−/− mice (FVB.129P2-Abcb1a^tm1BorN7), weight 20-21 g, 8 weeks at initiation of experiments, were housed and maintained (5 per cage) in the animal facility at Amgen Washington. All animals were cared for according to the standard protocols of the Amgen Institutional Animal Care and Use Committee.
Chemical reagents. Dextran sodium sulfate (DSS) with molecular mass 36-50 kDa was purchased from ICN Chemicals, Aurora, Ohio. The DSS solution was prepared as a 5% w/v solution in sterile water (Baxter Healthcare Corporation) and sterile filtered through a 0.45 μm filter before being added to drinking water. Water for the negative control groups was similarly filtered. FK506, (also known as Tacrolimus, active ingredient in Prograf®), chemical name [3S-[3R*[E(1S*,3S*,4S*)],4S*,5R*,8S*,9E,12R*,14R*,15S*,16R*,18S*,19S*,26aR*]]-5,6,8,11,12,13,14,15,16,17,18,19,24,25,26,26a-hexadecahydro-5,19-dihydroxy-3-[2-(4-hydroxy-3-methoxycyclohexyl)-1-methylethenyl]-14,16-dimethoxy-4,10,12,18-tetramethyl-8-(2-propenyl)-15,19-epoxy-3H-pyrodi[2,1-c][1,4]oxaazacyclotricosine-1,7,20,21(4H, 23H)-tetrone monohydrate, was used as a positive control for the inflammation treatment. Tacrolimus is a macrolide immunosuppressant produced by Streptomyces tsukubaensis. The solution of FK506 (Prograf®, Astellas) was prepared as follows: 0.1 mg/ml solution in phosphate buffered saline (PBS) was prepared by diluting 5 mg/ml stock solution. The animals were dosed with FK506 at 1 mg/kg in 200 μl of PBS.
Calcimimetic solutions (Compound A, 3-(2-chlorophenyl)-N-((1R)-1-(3-(methyloxy)phenyl)ethyl)-1-propanamine, Compound B, (1R)-N-((6-(methyloxy)-4′-(trifluoromethyl)-3-biphenylyl)methyl)-1-phenylethanamine, Compound C, N-(2-chloro-5-((((1R)-1-phenylethyl)amino)methyl)phenyl)-5-methyl-3-isoxazolecarboxamide, and Compound D, N-(2-chloro-5-((((1R)-1-phenylethyl)amino)methyl)phenyl)-2-pyridinecarboxamide) were formulated and dosed in free base equivalents at volumes determined by the pharmacologist. Formulation vehicle was 20% (w/v) Captisol (β-Cyclodextrin Sulfobutyl Ether Sodium Salt, Research Grade from CyDex, Inc.) in water with a final pH of 2.0-2.2 at room temperature, adjusted with HCl and NaOH as required. Final concentrations of DMSO never exceeded 0.1% (v/v).
DSS colitis in mice. All experiments were performed on groups of 8 to 10 SJL-J mice, housed in the same cage. For disease induction, mice were given a 5% DSS ad libitum as drinking water for 9 days.
Postmortem evaluation. Mice and rats were euthanized by CO2 asphyxiation. The large intestine were removed from the carcass, evaluated for gross lesions and three individual non-adjacent segments of proximal, middle and distal large intestine 2 centimeters long were immersed in the Zinc Formalin fix for 24 hours. At the end of 24 hours the sections were washed with tap water and put into 70% ethanol. Each section was then cut into three 3 mm pieces (9 pieces per animal), processed into paraffin blocks, and sections were cut in 5 μm sections and stained with hematoxylin and eosin.
Histopathologic changes of the proximal, middle, and distal small and large intestine was scored as a global assessment of inflammation based on inflammatory infiltrate, edema, mucosal erosions or ulcerations as described in Table 6.
For disease induction, treated mice were given 5% DSS in water ad libitum as drinking water for 9 days as described in Example 1 and were concurrently treated orally during that period with one of the treatments listed in Table 8.
FIG. 1 and Table 8 summarize the effect of the calcimimetic compound B on colonic inflammation in 5% DSS induced colitis. Animals were euthanized with carbon dioxide on day nine post treatment. […]

Data set [3] can be described thus: Serum calcium and phosphorus in mdr1a-/- colitis study. The following applies: day 38. In kind it is in vivo, mouse. As to the method:
(§1) All mice were necropsied on day 38 post initial inoculation. Mice were euthanized by CO2 asphyxiation. Blood was obtained by intracardiac puncture and collected in serum separator tubes. Serum was harvested and stored at −80° C. Colons were dissected below the cecum and just above the anus, and the contents of the lumen were removed. Sections of the proximal, middle, and distal colon regions were fixed in 10% neutral buffered formalin for histopathological analysis.
(§2) Serum clinical chemistry analysis was performed on the Olympus AU400 using standard tests and protocols. Calcium and phosphorus measurements were performed on undiluted serum for all samples. Serum cytokines and chemokines were assayed by Lincoplex mouse cytokine/chemokine muliplex immunoassasy (Millipore; Billerica, Mass.) per manufacturer instructions.
(§3) Results for serum analytes were expressed as the mean±standard error of the mean (SEM). A one-way ANOVA with Tukey's post test was performed using GraphPad Prism. A p-value of 0.05 was used in the calculation to determine whether there were significant differences between any two groups. Results for disease onset were expressed as a standard survival curve. A Log-Rank (Mantel-Cox) Test was performed using GraphPad Prism to determine significance. A p-value of 0.05 was used in the calculation to determine whether there were significant differences between any two groups. Results for clinical score and histology score were expressed as the mean±SEM. A Cochran-Mantel-Haenszel mean score test was performed using SAS software. A p-value of 0.05 was used in the calculation to determine whether there were significant differences between any two groups.

Data set [4] relates to colitis in mdr1a-/- mice induced by H. bilis. Kind of data set: Colitis in mdr1a-/- mice infected with Helicobacter bilis (clinical score, disease onset, histology). Format: in vivo, mouse. The following applies: for Total LI score (Max = 12), individual animals / GI Inflammation LI DISTAL, individual animals / GI Inflammation LI MIDDLE, individual animals / GI Inflammation LI PROXIMAL, individual animals: listed as R-B; for GI Inflammation LI DISTAL, individual animals / GI Inflammation LI MIDDLE, individual animals / GI Inflammation LI PROXIMAL, individual animals: score 0-4; for disease onset compared to vehicle control group: Log-Rank test, p-value=0.04.

Data set [5] concerns IP-10. Kind of data set: Serum IP-10 in mdr1a-/- colitis study. Format: in vivo, mouse. The procedure:
as §1, §2, §3

[6] abbreviates: 30 mg/kg oral, 5% DSS 9 days, vs Captisol vehicle.
Setting [7] is: R-Compound B 10 and 3 mg/kg groups.
[8] abbreviates: 10 mg/kg oral, 5% DSS 9 days, vs Captisol vehicle, p<0.01.

Several values for one entry are separate records, joined by “and”; a condition that tells them apart may be missing. Equal entries are not always repeated. Entries after “also recorded” stand apart in the source; their conditions may differ.

Turning to `Cc1cc(C(=O)Nc2cc(CN[C@H](C)c3ccccc3)ccc2Cl)no1` [Compound C, N-(2-chloro-5-((((1R)-1-phenylethyl)amino)methyl)phenyl)-5-methyl-3-isoxazolecarboxamide], in data set [1], the “absorption from the gut into the bloodstream” value is recorded as “not to be absorbed readily”. The “inflammation scores in all parts of colon compared to vehicle (FIG. 2)” value in data set [2] (30 mg/kg oral, 5% DSS) is reported as “reduce inflammation scores”. In data set [2] (setting [6]), the “decrease in mean large intestine inflammatory score, combined” value amounted to 30%; the “decrease in mean large intestine inflammatory score, distal” value amounted to 49%; the “decrease in mean large intestine inflammatory score, middle” value worked out at 20%; the “decrease in mean large intestine inflammatory score, proximal” value was found to be 15%.
Consider `C[C@@H](NCc1ccc(Cl)c(NC(=O)c2ccccn2)c1)c1ccccc1` [Compound D, N-(2-chloro-5-((((1R)-1-phenylethyl)amino)methyl)phenyl)-2-pyridinecarboxamide], for which the “absorption from the gut into the bloodstream” value in data set [1] is reported as “not to be absorbed readily”. Further, in data set [2] (30 mg/kg oral, 5% DSS), the “inflammation scores in all parts of colon compared to vehicle (FIG. 2)” value is listed as “reduce inflammation scores”. In data set [2] (30 mg/kg oral, 5% DSS 9 days), the “animals lacking inflammatory changes (colon normal)” value was “Two out of eight”. In addition, in data set [2] (setting [6]), the “decrease in mean large intestine inflammatory score, combined” value was 48%; the “decrease in mean large intestine inflammatory score, distal” value came to 68%; the “decrease in mean large intestine inflammatory score, middle” value is 29%; the “decrease in mean large intestine inflammatory score, proximal” value was determined as 44%.
In the case of `COc1ccc(CN[C@H](C)c2ccccc2)cc1-c1ccc(C(F)(F)F)cc1` [Compound B, (1R)-N-((6-(methyloxy)-4′-(trifluoromethyl)-3-biphenylyl)methyl)-1-phenylethanamine], in data set [3] (3 mg/kg PO daily), the “serum phosphorus compared to the S-Compound B treated group only” value is “significant elevation”. In data set [3] (10 mg/kg PO daily), the “serum calcium compared to CTLA4 and vehicle control groups” value is on record as “significant calcium reductions”; the “serum phosphorus levels compared to all control groups” value is “significantly elevated”. The “serum calcium levels compared to uninfected controls” value in data set [3] (both R-Compound B groups (10 and 3 mg/kg PO daily)) is recorded as “significantly reduced”. Besides, in data set [4] (3 mg/kg PO daily, day 38), the “Average LI score” value was 1.6; the “GI Inflammation LI DISTAL, Segment Mean” value stood at 0.60; the “GI Inflammation LI MIDDLE, Segment Mean” value worked out at 0.60; the “GI Inflammation LI PROXIMAL, Segment Mean” value is recorded as 0.40. Further, in data set [4] (3 mg/kg PO daily, day 38), the “Total LI score (Max = 12), individual animals” value was 0 (8×) and 8 (2×); the “GI Inflammation LI DISTAL, individual animals” value is 0 (8×) and 3 (2×); the “GI Inflammation LI MIDDLE, individual animals” value was 0 (8×) and 3 (2×); the “GI Inflammation LI PROXIMAL, individual animals” value is 0 (8×) and 2 (2×). Further, the “day on which an animal began showing clinical signs of colitis (disease onset)” value in data set [4] (3 mg/kg PO daily, first and second animal, listed as R-Compound B) is 17 days and 31 days. In addition, in data set [4] (10 mg/kg PO daily), the “day on which animals began showing clinical symptoms (disease onset)” value is 32 days and the “disease onset compared to vehicle control group” value is recorded as “significantly different”. For the same molecule, the “disease onset compared to vehicle control group” value in data set [4] (10 mg/kg PO daily, listed as R-Compound B) was “statistically significant difference”. Further, in data set [4] (10 mg/kg PO daily, day 38), the “Average LI score” value is reported as 0.9; the “GI Inflammation LI DISTAL, Segment Mean” value is recorded as 0.30; the “GI Inflammation LI MIDDLE, Segment Mean” value was 0.20; the “GI Inflammation LI PROXIMAL, Segment Mean” value was 0.40. In addition, in data set [4] (10 mg/kg PO daily, day 38), the “Total LI score (Max = 12), individual animals” value is 2 and 0 (8×) and 7; the “GI Inflammation LI DISTAL, individual animals” value was 0 (9×) and 3; the “GI Inflammation LI MIDDLE, individual animals” value was 0 (9×) and 2; the “GI Inflammation LI PROXIMAL, individual animals” value is 2 (2×) and 0 (8×). Besides, in data set [4] (10 mg/kg PO daily, final day (day 38), p<0.05), the “clinical scores compared to vehicle group” value is “significantly lower clinical scores”. In data set [4] (setting [7]), the “anal inflammation score of animals showing clinical symptoms” value is “none had an anal inflammation score above moderate” and the development of diarrhea result is given as “no animal developed diarrhea”. In data set [4] (day 38, per treatment group (S-Compound B 10 mg/kg, n=5; R-Compound B 10 mg/kg and 3 mg/kg, n=10 each)), the “number of animals with clinical symptoms of disease on the final day of the study” value is recorded as “one”. Moreover, the “percentage of animals with colon pathology” value in data set [4] (each R-Compound B group (10 and 3 mg/kg)) was 20%. Besides, the “overall effect on development, onset, incidence and severity of colitis” value in data set [4] (mdr1a-/- mice, 10 or 3 mg/kg PO daily, listed as R-Compound B) is “attenuates the development of colitis; also recorded: delayed the onset of colitis and reduced the severity of disease; also recorded: reduced the incidence and severity of disease; also recorded: inhibited the development and severity of colitis”. Moreover, in data set [4] (per group: R-Compound B 10 and 3 mg/kg each, S-Compound B 10 mg/kg), the “animals with colitis / colon pathology by histology” value is on record as 2 out of 10. Also, the “difference in production of serum IP-10 vs vehicle control group” value in data set [5] (10 mg/kg PO daily, p=0.06) was “approached significance”. The “elevation of serum IP-10” value in data set [5] (treatment groups vs vehicle treated animals) is on record as “less elevation”. The “animals lacking inflammatory changes (colon normal)” value in data set [2] (10 mg/kg oral, 5% DSS 9 days) is “Four out of ten”. Further, in data set [2] (setting [8]), the “mean large intestine inflammatory score, combined segments” value was “statistically significant decreased” and the “mean large intestine inflammatory score, middle segment” value is listed as “statistically significant decreased”. The “mean large intestine inflammatory score, distal segment” value in data set [2] (10 mg/kg oral, 5% DSS 9 days, vs Captisol vehicle, p<0.05) was “statistically significant decreased”. Besides, the “Animals with colonic inflammation/total animals” value in data set [2] (5% DSS 9 days, SJL/J mice, oral, Compound B 10 mg/kg, FK 506 1 mg/kg) is given as 6/10. Also, the “mean inflammatory score in combined colonic segments compared to FK 506 treatment” value in data set [2] (Compound B 10 mg/kg vs FK 506 1 mg/kg, oral, 5% DSS) is “statistically significant (p<0.05) decrease”.
